Data: ChEMBL document CHEMBL1687832, “Polymyxin-resistant clinical isolates of Escherichia coli” (Antimicrob Agents Chemother, 2011)

Legend:
Assay type in all cases: functional, organism-based
Escherichia coli [1] = experiment: Antimicrobial activity against drug-resistant Escherichia coli isolate 1 expressing beta-lactamase CTX-M-15 isolated from urine of patient with history of hypertension, hyperlipidemia by broth microdilution method
Escherichia coli [2] = experiment: Antimicrobial activity against drug-resistant Escherichia coli isolate 1 expressing beta-lactamase CTX-M-15 isolated from urine of patient with history of hypertension, hyperlipidemia by Etest
Escherichia coli [3] = experiment: (§1) Antimicrobial activity against drug-resistant Escherichia coli isolate 2 expressing beta-lactamase CTX-M-15 isolated from patient past medical history included multiple courses of compound treatment, multiple sclerosis, pulmonary embolism, seizure disorder, tracheostomy for respiratory failure, gastrostomy secondary to dysphagia, congestive heart failure, diabetes mellitus, and peripheral inserted central by Etest
Escherichia coli [4] = experiment: as §1, with “microdilution method” for “Etest”
Escherichia coli [5] = experiment: Antimicrobial activity against Escherichia coli ATCC 25922 by broth microdilution method
Escherichia coli [6] = experiment: Antimicrobial activity against Escherichia coli ATCC 25922 by Etest

Sequence | MBC (Escherichia coli [1]) | MIC (Escherichia coli [1]) | MIC (Escherichia coli [2]) | MIC (Escherichia coli [3]) | MBC (Escherichia coli [4]) | MIC (Escherichia coli [4]) | MBC (Escherichia coli [5]) | MIC (Escherichia coli [5]) | MIC (Escherichia coli [6])
COLISTIN | 16 µg/mL | 16 µg/mL | 16 µg/mL | 16 µg/mL | 32 µg/mL | 32 µg/mL | 1 µg/mL | 1 µg/mL | 1.5 µg/mL
POLYMYXIN B | 32 µg/mL | 16 µg/mL | 16 µg/mL | 24 µg/mL | 32 µg/mL | 16 µg/mL | 0.5 µg/mL | 0.5 µg/mL | 1 µg/mL
